Experimental data as given in patent US11001802B2, “Surface of a vessel with polystyrene, nitrogen, oxygen and a static sessile contact angle for attachment and cultivation of cells” (Nunc A/S, priority 2008, dated 2021).

Tested on: HEK293 cells
Assay: HEK293 attachment and growth, culture confluence by IncuCyte Plus (Examples 20, 21)
Type: cell-based, human
Procedure: HEK293 cells were maintained in EMEM (Lonza) containing 10% FBS (Lonza). Cells were passaged at 70-80% confluence using Trypsin/EDTA for dissociation, and seeded at c 2.0×10^4 cells/cm^2 in 75-cm^2 flasks with Nunclon Delta™ surface (Thermo Fisher Scientific, Roskilde, Denmark).
EMEM (500 μl) supplemented with 10% FBS containing 1.0, 5.0, 10, 15 or 20 μM Y-27632 (Sigma Chemical Co.), or 0.4, 1.2, 1.6, 2.4 or 2.8 μM H-1152 (Calbiochem, EMD Chemicals Inc., Darmstadt, Germany) was dispensed in Multidish 24-well plates with either Surface 4 or a non-treated (but gamma irradiated; 25 kGy) polystyrene surface. Another 500 μl of EMEM supplemented with 10% FBS and containing HEK293 cells were added to the wells (2.0×10^4 cells/cm^2). The cultures were placed in an IncuCyte™ Plus (Essen Instruments, Michigan, USA) and incubated at 37° C. in a humidified atmosphere of 5% CO2 in air. The IncuCyte™ Plus is an automated imaging platform, configured to fit inside a CO2 incubator, and designed to provide kinetic, non-invasive live cell imaging by acquiring phase contrast images of the cells at user-defined times and locations within the cultures. The primary metric of the instrument is culture confluence, that is, the fraction of the surface that is covered by cells. The HEK293 cells were incubated for 72 hours without manipulations, and images were collected every two hours at 9 positions in triplicate cultures. Culture confluence was determined using the IncuCyte™ Plus software (v. 3.4.1.25966).
EMEM (1.0 ml) supplemented with 10% FBS containing 0.4, 0.8, 1.2, 1.6, 2.0, 2.4 or 2.8 μM H-1152 was dispensed in Multidish 12-well plates with Surface 4. Another 1.0 ml of EMEM supplemented with […] and containing HEK293 cells were added to the wells (4.0×10^4 cells/cm^2). The cultures were placed in an IncuCyte™ Plus, and incubated at 37° C. in a humidified atmosphere of 5% CO2 in air for 42 hours (images were collected every 6 hours). One ml of culture medium was then removed by pipetting, and 1.0 ml EMEM supplemented with 10% FBS containing 0.2, 0.4, 0.6, 0.8, 1.0, 1.2 and 1.4 μM H-1152 was added. The cultures were placed in the IncuCyte™ Plus again, and images were collected every hour over the following 25 hours. Images were collected at 9 positions in triplicate cultures, and culture confluence was determined using the IncuCyte™ Plus software. Images from the IncuCyte™ Plus collected at specific positions in HEK293 cell cultures grown in the absence or presence of H-1152 (0.6 μM) was retrieved and presented as phase-contrast micrographs for the comparison of HEK293 culture morphology at the following time points: start of incubation (0 hours), just before medium change (42 hours), 1 hour after the medium change (43 hours), and, finally, after 52 hours of incubation.

`C[C@@H](N)[C@H]1CC[C@H](C(=O)Nc2ccncc2)CC1` [Surface Y-27632, Y-27632] was tested, and the “attachment and growth of HEK293 cells” value (Surface 4, increasing concentration) was “enhances attachment and growth” and the “growth and attachment of HEK293 cells” value (non-treated polystyrene surface, 10 μM Y-27632, 0.6-1.2 μM H-1152) was “slightly enhanced”.
